Experimental data published in US7829585B2, “Antifungal agent containing pyridine derivative” (Eisai R&D Management Co., Ltd., priority 2005, dated 2010).
In brackets after ≈: the same amount, converted by molar mass.

Columns and labels:
[1] = test system: C. albicans E81022 strain; assay: Anti-Candida activity, MIC measurement (broth dilution, visual inspection); format: cell-based; conditions: C. albicans E81022, RPMI1640, 48 hours at 35° C.; for MIC: Candida albicans, E81022STRAIN, read-out: Anti-Candida activity (minimum growth inhibitory concentration, MIC)
Protocol: (§1) For the C. albicans E81022 strain, a fungal suspension from a standing culture 48 hours at 30° C. in a Sabouraud dextrose liquid culture medium (SDB) was diluted 10000-fold with 1.3-times concentrated RPMI1640 medium to prepare a fungal suspension containing 1 to 2×10^4 cells/ml. For the A. fumigatus Tsukuba strain, −80° C. stored strain was diluted 1000-fold with 1.3-times concentrated RPMI1640 medium to prepare a fungal suspension containing 2 to 3×10^3 cells/ml.
(§2) Using a U-shaped bottomed 96-well plates, 8 samples/plate (A to H) of sample dilution solutions were prepared. On the first row was dispensed 240 μl of sterile distilled water, and on the 2nd to 12th row were dispersed 125 μL of 4% dimethylsulfoxide solution. Weighed sample was dissolved in dimethylsulfoxide to prepare a 5 mg/ml solution followed by adding 10 μL of the solutions to the first row of the prepared plates and preparing 12-step serial 2-fold dilutions (125 μL of solution+125 μL of 4% dimethylsulfoxide solution) on the plates.
(§3) The fungal suspension prepared in (1) was used in the amount of 75 μL/well to inoculate the flat-bottomed 96-well plates containing 25 μL/well of the test compound prepared in (2), and a standing culture was carried out aerobically for 48 hours at 35° C.

[2] = test system: A. fumigatus Tsukuba strain; assay: Anti-Aspergillus activity, MIC measurement (broth dilution, visual inspection); format: cell-based; conditions: RPMI1640, 48 hours at 35° C., read-out: Anti-Aspergillus activity (minimum growth inhibitory concentration, MIC)
Protocol: as §1, §2, §3

## 2,6-Diamino-N-(6-(2-phenoxy-ethoxy)-benzofuran-2-ylmethyl)-nicotinamide [Example 80]
[1]
  Anti-Candida activity (minimum growth inhibitory concentration, MIC): 3.13 mg/L

## CC#CCOc1ccc2cc(CNC(=O)c3ccc(N)nc3N)oc2c1 [Example 8, 2,6-Diamino-N-(6-but-2-ynyloxy-benzofuran-2-ylmethyl)-nicotinamide]
[1]
  MIC: 1.56 mg/L (≈ 4.45 µM)

## CCCCCOc1ccc2cc(CNC(=O)c3ccc(N)nc3N)oc2c1 [Example 12, 2,6-Diamino-N-(6-pentyloxy-benzofuran-2-ylmethyl)-nicotinamide]
[1]
  MIC: 0.78 mg/L (≈ 2.12 µM)
[2]
  MIC: 1.56 mg/L (≈ 4.23 µM)

## CC(C)COc1ccc2cc(CNC(=O)c3ccc(N)nc3N)oc2c1 [Example 13, 2,6-Diamino-N-(6-isobutoxy-benzofuran-2-ylmethyl)-nicotinamide]
[1]
  MIC: 0.39 mg/L (≈ 1.1 µM)
[2]
  MIC: 1.56 mg/L (≈ 4.4 µM)

## CC(C)CCOc1ccc2cc(CNC(=O)c3ccc(N)nc3N)oc2c1 [Example 14, 2,6-Diamino-N-(6-(3-methyl-butoxy)-benzofuran-2-ylmethyl)-nicotinamide]
[1]
  MIC: 1.56 mg/L (≈ 4.23 µM)

## CC(C)(C)COc1ccc2cc(CNC(=O)c3ccc(N)nc3N)oc2c1 [Example 16, 2,6-Diamino-N-(6-(2,2-dimethyl-propoxy)-benzofuran-2-ylmethyl)-nicotinamide]
[1]
  MIC: 3.13 mg/L (≈ 8.5 µM)
[2]
  MIC: 6.25 mg/L (≈ 17 µM)

## CC(C)=CCOc1ccc2cc(CNC(=O)c3ccc(N)nc3N)oc2c1 [Example 17, 2,6-Diamino-N-(6-(3-methyl-but-2-enyloxy)-benzofuran-2-ylmethyl)-nicotinamide]
[1]
  MIC: 0.78 mg/L (≈ 2.13 µM)

## Nc1ccc(C(=O)NCc2cc3ccc(OCc4cccc(F)c4)cc3o2)c(N)n1 [Example 22, 2,6-Diamino-N-(6-(3-fluoro-benzyloxy)-benzofuran-2-ylmethyl)-nicotinamide]
[1]
  MIC: 0.39 mg/L (≈ 0.96 µM)
[2]
  MIC: 1.56 mg/L (≈ 3.84 µM)

## Nc1ccc(C(=O)NCc2cc3ccc(OCc4ccccc4F)cc3o2)c(N)n1 [Example 23, 2,6-Diamino-N-(6-(2-fluoro-benzyloxy)-benzofuran-2-ylmethyl)-nicotinamide]
[1]
  Anti-Candida activity (minimum growth inhibitory concentration, MIC): 1.56 mg/L

## COCc1ccc(C(=O)NCc2cc3ccc(OC)cc3o2)c(N)n1 [Example 24, 2-Amino-N-(6-methoxy-benzofuran-2-ylmethyl)-6-methoxymethyl-nicotinamide]
[1]
  MIC: 6.25 mg/L (≈ 18.3 µM)
[2]
  MIC: 3.13 mg/L (≈ 9.17 µM)

## CCCCOc1ccc2cc(CNC(=O)c3ccc(COC)nc3N)oc2c1 [Example 25, 2-Amino-N-(6-butoxy-benzofuran-2-ylmethyl)-6-methoxymethyl-nicotinamide]
[1]
  MIC: 0.78 mg/L (≈ 2.03 µM)

## CCC(C)COc1ccc2cc(CNC(=O)c3ccc(COC)nc3N)oc2c1 (stereo not drawn) [Example 29, 2-Amino-6-methoxymethyl-N-(6-(2-methyl-butoxy)-benzofuran-2-ylmethyl)-nicotinamide]
[1]
  MIC: 1.56 mg/L (≈ 3.92 µM)
[2]
  MIC: 6.25 mg/L (≈ 15.7 µM)

## COCc1ccc(C(=O)NCc2cc3ccc(OCC4CCCCO4)cc3o2)c(N)n1 (stereo not drawn) [Example 33, 2-Amino-6-methoxymethyl-N-(6-(tetrahydro-pyran-2-ylmethoxy)-benzofuran-2-ylmethyl)-nicotinamide]
[1]
  MIC: 12.5 mg/L (≈ 29.4 µM)

## CCCOc1ccc2cc(CNC(=O)c3ccc(COC)nc3N)oc2c1 [Example 37, 2-Amino-6-methoxymethyl-N-(6-propoxy-benzofuran-2-ylmethyl)-nicotinamide]
[1]
  MIC: 0.2 mg/L (≈ 0.541 µM)

## CC=CCOc1ccc2cc(CNC(=O)c3ccc(COC)nc3N)oc2c1 [Example 38, 2-Amino-N-(6-but-2-enyloxy-benzofuran-2-ylmethyl)-6-methoxymethyl-nicotinamide]
[1]
  MIC: 0.39 mg/L (≈ 1.02 µM)
[2]
  MIC: 0.78 mg/L (≈ 2.04 µM)

## C#CCOc1ccc2cc(CNC(=O)c3ccc(COC)nc3N)oc2c1 [Example 39, 2-Amino-6-methoxymethyl-N-(6-prop-2-ynyloxy-benzofuran-2-ylmethyl)-nicotinamide]
[1]
  MIC: 1.56 mg/L (≈ 4.27 µM)
[2]
  MIC: 1.56 mg/L (≈ 4.27 µM)

## COCCOc1ccc2cc(CNC(=O)c3ccc(COC)nc3N)oc2c1 [Example 40, 2-Amino-N-(6-(2-methoxy-ethoxy)-benzofuran-2-ylmethyl)-6-methoxymethyl-nicotinamide]
[1]
  MIC: 3.13 mg/L (≈ 8.12 µM)
[2]
  MIC: 3.13 mg/L (≈ 8.12 µM)

## CCOCCOc1ccc2cc(CNC(=O)c3ccc(COC)nc3N)oc2c1 [Example 41, 2-Amino-N-(6-(2-ethoxy-ethoxy)-benzofuran-2-ylmethyl)-6-methoxymethyl-nicotinamide]
[1]
  MIC: 3.13 mg/L (≈ 7.84 µM)

## COCc1ccc(C(=O)NCc2cc3ccc(OCc4ccccc4F)cc3o2)c(N)n1 [Example 42, 2-Amino-N-(6-(2-fluoro-benzyloxy)-benzofuran-2-ylmethyl)-6-methoxymethyl-nicotinamide]
[1]
  MIC: 1.56 mg/L (≈ 3.58 µM)
[2]
  MIC: 3.13 mg/L (≈ 7.19 µM)

## COCc1ccc(C(=O)NCc2cc3ccc(OCc4cccc(F)c4)cc3o2)c(N)n1 [Example 43, 2-Amino-N-(6-(3-fluoro-benzyloxy)-benzofuran-2-ylmethyl)-6-methoxymethyl-nicotinamide]
[1]
  MIC: 0.78 mg/L (≈ 1.79 µM)
[2]
  MIC: 6.25 mg/L (≈ 14.4 µM)

## COCc1ccc(C(=O)NCc2cc3ccc(OCc4ccccn4)cc3o2)c(N)n1 [Example 44, 2-Amino-6-methoxymethyl-N-(6-(pyridin-2-ylmethoxy)-benzofuran-2-ylmethyl)-nicotinamide]
[1]
  MIC: 0.78 mg/L (≈ 1.86 µM)
[2]
  MIC: 6.25 mg/L (≈ 14.9 µM)

## COCc1ccc(C(=O)NCc2cc3ccc(OCc4cccnc4)cc3o2)c(N)n1 [Example 45, 2-Amino-6-methoxymethyl-N-(6-(pyridin-3-ylmethoxy)-benzofuran-2-ylmethyl)-nicotinamide]
[1]
  MIC: 12.5 mg/L (≈ 29.9 µM)
[2]
  MIC: 12.5 mg/L (≈ 29.9 µM)

## COCc1ccc(C(=O)NCc2cc3ccc(OCc4ccncc4)cc3o2)c(N)n1 [Example 46, 2-Amino-6-methoxymethyl-N-(6-(pyridin-4-ylmethoxy)-benzofuran-2-ylmethyl)-nicotinamide]
[1]
  MIC: 0.39 mg/L (≈ 0.932 µM)

## COCc1ccc2cc(CNC(=O)c3ccc(COC)nc3N)oc2c1 [Example 47, 2-Amino-6-methoxymethyl-N-(6-methoxymethyl-benzofuran-2-ylmethyl)-nicotinamide]
[1]
  MIC: 0.78 mg/L (≈ 2.19 µM)
[2]
  MIC: 1.56 mg/L (≈ 4.39 µM)

## COCc1ccc(C(=O)NCc2cc3ccc(Oc4ccccc4)cc3o2)c(N)n1 [Example 49, 2-Amino-6-methoxymethyl-N-(6-phenoxy-benzofuran-2-ylmethyl)-nicotinamide]
[1]
  MIC: 0.39 mg/L (≈ 0.967 µM)
[2]
  MIC: 6.25 mg/L (≈ 15.5 µM)

## Nc1ccc(C(=O)NCc2cc3cc(OCc4ccccc4)ccc3o2)c(N)n1 [Example 51, 2,6-Diamino-N-(5-benzyloxy-benzofuran-2-ylmethyl)-nicotinamide]
[1]
  MIC: 0.2 mg/L (≈ 0.515 µM)
[2]
  MIC: 0.78 mg/L (≈ 2.01 µM)

## C=CCOc1ccc2oc(CNC(=O)c3ccc(N)nc3N)cc2c1 [Example 52, N-(5-Allyloxy-benzofuran-2-ylmethyl)-2,6-diamino-nicotinamide]
[1]
  MIC: 1.56 mg/L (≈ 4.61 µM)
[2]
  MIC: 0.78 mg/L (≈ 2.31 µM)

## Nc1ccc(C(=O)NCc2cc3cc(OCC4CC4)ccc3o2)c(N)n1 [Example 53, 2,6-Diamino-N-(5-cyclopropylmethoxy-benzofuran-2-ylmethyl)-nicotinamide]
[1]
  MIC: 6.25 mg/L (≈ 17.7 µM)
[2]
  MIC: 6.25 mg/L (≈ 17.7 µM)

## C=CCOc1ccc2oc(CNC(=O)c3ccc(COC)nc3N)cc2c1 [Example 54, N-(5-Allyloxy-benzofuran-2-ylmethyl)-2-amino-6-methoxymethyl-nicotinamide]
[1]
  MIC: 1.56 mg/L (≈ 4.25 µM)
[2]
  MIC: 0.39 mg/L (≈ 1.06 µM)

## CCCCc1ccc2oc(CNC(=O)c3ccc(COC)nc3N)cc2c1 [Example 57, 2-Amino-N-(5-butyl-benzofuran-2-ylmethyl)-6-methoxymethyl-nicotinamide]
[1]
  MIC: 6.25 mg/L (≈ 17 µM)
[2]
  MIC: 1.56 mg/L (≈ 4.25 µM)

## Nc1ncccc1C(=O)NCc1cc2ccc(OCc3ccccc3)cc2o1 [Example 58, 2-Amino-N-(6-benzyloxy-benzofuran-2-ylmethyl)-nicotinamide]
[1]
  MIC: 0.1 mg/L (≈ 0.268 µM)
[2]
  MIC: 1.56 mg/L (≈ 4.18 µM)

## CCOc1ccc2cc(CNC(=O)c3cccnc3N)oc2c1 [Example 59, 2-Amino-N-(6-ethoxy-benzofuran-2-ylmethyl)-nicotinamide]
[1]
  MIC: 0.78 mg/L (≈ 2.51 µM)
[2]
  MIC: 3.13 mg/L (≈ 10.1 µM)

## CCC(C)COc1ccc2cc(CNC(=O)c3cccnc3N)oc2c1 (stereo not drawn) [Example 65, 2-Amino-N-(6-(2-methyl-butoxy)-benzofuran-2-ylmethyl)-nicotinamide]
[1]
  MIC: 1.56 mg/L (≈ 4.41 µM)
[2]
  MIC: 3.13 mg/L (≈ 8.86 µM)

## CC=CCOc1ccc2cc(CNC(=O)c3cccnc3N)oc2c1 [Example 69, 2-Amino-N-(6-but-2-enyloxy-benzofuran-2-ylmethyl)-nicotinamide]
[1]
  MIC: 0.39 mg/L (≈ 1.16 µM)
[2]
  MIC: 0.39 mg/L (≈ 1.16 µM)

## C#CCOc1ccc2cc(CNC(=O)c3cccnc3N)oc2c1 [Example 70, 2-Amino-N-(6-prop-2-ynyloxy-benzofuran-2-ylmethyl)-nicotinamide]
[1]
  MIC: 0.78 mg/L (≈ 2.43 µM)
[2]
  MIC: 1.56 mg/L (≈ 4.85 µM)

## COCc1ccc(C(=O)NCc2cc3ccc(OCC4CC4)cc3[nH]2)c(N)n1 [Example 73, 2-Amino-N-(6-cyclopropylmethoxy-1H-indol-2-ylmethyl)-6-methoxymethyl-nicotinamide]
[2]
  MIC: 25 mg/L (≈ 65.7 µM)

## COCc1ccc(C(=O)NCc2cc3cc(Br)ccc3o2)c(N)n1 [Example 79, 2-Amino-N-(5-bromo-benzofuran-2-ylmethyl)-6-methoxymethyl-nicotinamide]
[2]
  MIC: 12.5 mg/L (≈ 32 µM)

## CCOCc1ccc2oc(CNC(=O)c3ccc(COC)nc3N)cc2c1 [Example 81, 2-Amino-N-(5-ethoxymethyl-benzofuran-2-ylmethyl)-6-methoxymethyl-nicotinamide]
[2]
  MIC: 6.25 mg/L (≈ 16.9 µM)
